# Measured values taken from patent US9346769B2, “Tetrazolones as inhibitors of fatty acid synthase” (Infinity Pharmaceuticals, Inc., priority 2010, dated 2016).
# Molecular target: T1, human FASN (Homo sapiens, UniProt P49327)
# T1 construct: was purified from SKBR3 cells using procedures modified from those in Jayakumar et al; endogenous in cells; host or cells: SKBR3 human breast cancer cells (ATCC); Endogenous enzyme purified by ammonium sulfate precipitation and a mono Q column
# Experiment: FASN Scintillation Proximity Flashplate Assay
# Format: biochemical
# Conditions: human FASN purified from SKBR3 cells; unstarred symbols
# Method: Human FASN protein (SEQ ID NO. 1) was purified from SKBR3 cells using procedures modified from those in Jayakumar et al. PNAS 1995, 92:8695-8699. SKBR3 cells were obtained from ATCC and grown in DMEM high glucose medium supplemented with 10% FBS, 1 μg/mL bovine pancreas insulin, 100 U/mL penicillin and 100 µg/mL streptomycin. The confluent cells were trypsinized and washed three times with PBS buffer before frozen in liquid N2 and stored at −80° C. Frozen cells were thawed on ice and resuspended in lysis buffer (25 mM Tris-HCl, pH 7.0, 15 mM NaCl, 1 mM EDTA, and 1 mM DTT) with protease inhibitors. The cells were lysed by sonication, and the cell debris was removed by centrifugation at 20,000 rpm for 30 min. To the supernatant, neutralized saturated ammonium sulfate solution was added to a final concentration of 35%. The solution was left on ice for 1 hr, and the precipitated proteins were harvested by centrifugation at 20,000 rpm for 30 min. The proteins were redissolved in lysis buffer without NaCl and loaded on a mono Q column. Bound proteins were eluted with a linear gradient of NaCl in lysis buffer. Each fraction was analyzed by SDS-PAGE and FASN NADPH consumption assay. The fractions containing FASN were pooled and concentrated to 2-3 mg/mL. Glycerol was added to 20%, and the protein was frozen in liquid N2 and stored at −80° C.
# Acetyl-coenzyme A, malonyl-coenzyme A, NADPH, bovine gamma globulin, and ORLISTAT were purchased from Sigma (St. Louis, Mo.). Tris(2-carboxyethyl) phosphine hydrochloride (TCEP) was purchased from Pierce Biotechnologies (Rockford, Ill.). [^3H]-acetyl-coenzyme A was purchased from Moravek Biochemicals (Brea, CA). FlashPlate™ PLUS phospholipid 96-well scintillant coated microplates were purchased from Perkin Elmer Life and Analytical Sciences (Shelton, CT). The method of the FASN Scintillation Proximity FlashPlate assay is similar to that described in Weiss and Glickman Assay Drug Dev Technol 2003, 1:161-6. In a 96-well polypropylene microplate, a dilution series (typical concentrations 60 nM-1.0 mM) of test compounds were prepared in DMSO followed by a 20-fold dilution into FASN assay buffer (50 mM potassium phosphate, pH 7.0, 1.0 mM EDTA, 0.01% NP-40), of which 5.0 μL each was transferred to a FlashPlate® PLUS 96-well plate and mixed with 35 μL FASN assay buffer plus 0.5 mg/mL bovine gamma globulin and 1 mM TCEP. FASN protein (10 μL, 10 nM) was added per well, and the microplate was incubated at 37° C. for 30 min. 10 μL of 20 mM NADPH was added, and the reaction was initiated by addition of […] substrate mixture to final concentrations of 1 nM FASN, 100 μM acetyl-coenzyme A, 6 μCi [^3H]-acetyl-coenzyme A, 300 μM malonyl-coenzyme A, 2 mM NADPH, 0.5 mg/mL bovine gamma globulin, and 1 mM TCEP in a volume of 100 μL per well. Assay plates were incubated for 2 hr at 37° C. and the reaction was stopped with 2 μL of 2.5 mM stock solution of ORLISTAT in DMSO to ˜50 μM. The plates were read in a Wallac 1450 Microbeta Plus liquid scintillation counter (Perkin Elmer, Waltham, Mass.), and counts per minute (CPM) were collected over 2 min. Each inhibitor well CPM was compared to the maximum FASN enzyme activity (Max) CPM and the background (Min) CPM, as measured by omission of FASN enzyme in the background well. % Inhibition values were calculated, and curves were fitted by a four-parameter logistic function to yield IC50 values:
# Compounds were assayed as inhibitors of human FASN using the above-described FASN Scintillation Proximity Flashplate Assay (IC50; nM) or FASN NADPH Consumption Assay (*) (IC50; nM). The corresponding activity of the isolated compound is also provided along with the measured mass (ES^+).
# T1 sequence (P49327 whole entry): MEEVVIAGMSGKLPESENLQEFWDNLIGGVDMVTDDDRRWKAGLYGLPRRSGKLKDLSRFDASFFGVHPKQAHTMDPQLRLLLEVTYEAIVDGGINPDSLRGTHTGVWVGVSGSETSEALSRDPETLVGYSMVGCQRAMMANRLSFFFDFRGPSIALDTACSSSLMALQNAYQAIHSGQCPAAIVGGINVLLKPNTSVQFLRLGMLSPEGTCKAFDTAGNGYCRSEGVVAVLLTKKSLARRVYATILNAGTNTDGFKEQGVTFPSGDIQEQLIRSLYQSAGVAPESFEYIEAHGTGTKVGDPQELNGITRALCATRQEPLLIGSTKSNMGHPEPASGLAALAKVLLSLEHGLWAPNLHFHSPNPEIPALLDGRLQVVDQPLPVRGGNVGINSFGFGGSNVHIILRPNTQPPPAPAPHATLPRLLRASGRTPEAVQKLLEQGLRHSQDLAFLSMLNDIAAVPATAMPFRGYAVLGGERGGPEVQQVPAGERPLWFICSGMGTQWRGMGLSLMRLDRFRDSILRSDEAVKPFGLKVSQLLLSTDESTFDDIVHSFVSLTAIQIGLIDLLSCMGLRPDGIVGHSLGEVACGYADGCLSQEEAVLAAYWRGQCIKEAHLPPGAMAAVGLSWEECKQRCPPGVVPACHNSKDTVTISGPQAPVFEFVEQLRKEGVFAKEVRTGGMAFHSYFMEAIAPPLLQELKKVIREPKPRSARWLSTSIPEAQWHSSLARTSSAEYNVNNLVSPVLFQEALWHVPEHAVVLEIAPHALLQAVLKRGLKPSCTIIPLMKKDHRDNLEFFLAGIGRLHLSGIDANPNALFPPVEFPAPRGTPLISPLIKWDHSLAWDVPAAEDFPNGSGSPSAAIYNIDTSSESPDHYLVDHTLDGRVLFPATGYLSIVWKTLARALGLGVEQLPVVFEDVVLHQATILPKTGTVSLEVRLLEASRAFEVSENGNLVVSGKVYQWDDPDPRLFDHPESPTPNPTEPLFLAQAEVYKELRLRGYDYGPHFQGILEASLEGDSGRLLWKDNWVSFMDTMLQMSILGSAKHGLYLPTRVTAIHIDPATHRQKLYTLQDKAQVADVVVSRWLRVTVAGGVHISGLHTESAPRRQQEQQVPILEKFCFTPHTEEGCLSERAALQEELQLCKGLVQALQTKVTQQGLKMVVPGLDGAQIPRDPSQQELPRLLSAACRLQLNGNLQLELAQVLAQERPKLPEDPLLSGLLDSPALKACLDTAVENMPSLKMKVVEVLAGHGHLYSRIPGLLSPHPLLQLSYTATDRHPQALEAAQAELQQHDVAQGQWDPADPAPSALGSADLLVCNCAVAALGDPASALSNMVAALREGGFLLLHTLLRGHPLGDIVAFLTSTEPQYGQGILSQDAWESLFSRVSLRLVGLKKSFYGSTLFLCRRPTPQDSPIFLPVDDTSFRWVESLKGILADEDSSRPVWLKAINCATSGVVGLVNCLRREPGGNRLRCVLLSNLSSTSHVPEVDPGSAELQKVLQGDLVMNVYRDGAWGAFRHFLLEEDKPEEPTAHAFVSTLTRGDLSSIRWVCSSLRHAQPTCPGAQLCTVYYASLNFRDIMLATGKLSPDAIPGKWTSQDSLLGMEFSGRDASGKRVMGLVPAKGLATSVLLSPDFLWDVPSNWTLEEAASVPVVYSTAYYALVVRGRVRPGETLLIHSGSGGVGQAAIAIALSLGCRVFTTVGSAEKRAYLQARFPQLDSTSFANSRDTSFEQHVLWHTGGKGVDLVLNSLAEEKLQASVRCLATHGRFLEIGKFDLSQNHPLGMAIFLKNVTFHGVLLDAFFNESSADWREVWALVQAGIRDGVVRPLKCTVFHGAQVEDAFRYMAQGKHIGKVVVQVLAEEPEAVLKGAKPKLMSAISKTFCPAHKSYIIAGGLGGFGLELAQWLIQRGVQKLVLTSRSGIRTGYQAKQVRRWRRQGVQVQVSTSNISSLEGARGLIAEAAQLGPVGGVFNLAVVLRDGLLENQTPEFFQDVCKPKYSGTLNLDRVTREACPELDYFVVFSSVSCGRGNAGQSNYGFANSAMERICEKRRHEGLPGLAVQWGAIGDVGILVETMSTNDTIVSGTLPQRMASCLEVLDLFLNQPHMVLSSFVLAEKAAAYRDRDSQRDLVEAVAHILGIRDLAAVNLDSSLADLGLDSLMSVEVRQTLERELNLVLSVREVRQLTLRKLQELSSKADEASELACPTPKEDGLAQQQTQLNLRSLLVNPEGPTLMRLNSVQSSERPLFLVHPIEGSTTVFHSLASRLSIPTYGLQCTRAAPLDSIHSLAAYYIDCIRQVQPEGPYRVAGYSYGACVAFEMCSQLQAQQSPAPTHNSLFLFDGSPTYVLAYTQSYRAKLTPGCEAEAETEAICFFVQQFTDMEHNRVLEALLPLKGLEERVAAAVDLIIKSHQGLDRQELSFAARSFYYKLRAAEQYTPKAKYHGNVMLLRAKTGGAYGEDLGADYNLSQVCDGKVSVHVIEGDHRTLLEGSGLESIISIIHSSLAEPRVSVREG
row,SMILES,IC50
1,COc1ccc(N(C(=O)n2nnn(-c3c(F)cccc3C(=O)O)c2=O)C(C)C)cc1C(=O)OCc1ccccc1,15 to 100 nM
2,CCN(C(=O)n1nnn(-c2c(F)cccc2C(=O)N2CCOCC2)c1=O)c1ccccc1Oc1ccccc1,200 to 5000 nM
3,COc1ccc(N(C(=O)n2nnn(-c3c(F)cccc3C(=O)N3CCOCC3)c2=O)C(C)C)cc1C(=O)OCc1ccccc1,< 15 nM
4,COc1ccc(N(C(=O)n2nnn(-c3c(F)cccc3C(=O)N3CCOCC3)c2=O)C(C)C)cc1C(=O)O,200 to 5000 nM
5,COc1ccc(N(C(=O)n2nnn(-c3c(F)cccc3C(=O)N3CCCCC3)c2=O)C(C)C)cc1C(=O)OCc1ccccc1,< 15 nM
6,COc1ccc(N(C(=O)n2nnn(-c3c(F)cccc3C(=O)N3CCCCC3)c2=O)C(C)C)cc1C(=O)O,15 to 100 nM
7,CCN(C(=O)n1nnn(-c2c(F)cccc2C(=O)N2CCCCC2)c1=O)c1ccccc1Oc1ccccc1,100 to 200 nM
8,CCN(C(=O)n1nnn(-c2c(F)cccc2C(=O)NCc2ccccc2)c1=O)c1ccccc1,< 15 nM
9,CCN(C(=O)n1nnn(-c2c(F)cccc2C(=O)NCc2ccccc2)c1=O)c1ccccc1Oc1ccccc1,15 to 100 nM
10,COc1ccc(N(C(=O)n2nnn(-c3c(F)cccc3C(=O)N(C)Cc3ccccc3)c2=O)C(C)C)cc1C(=O)O,< 15 nM
11,COc1ccc(N(C(=O)n2nnn(-c3c(F)cccc3C(=O)N(C)Cc3ccccc3)c2=O)C(C)C)cc1C(=O)OCc1ccccc1,< 15 nM
12,COc1ccc(N(C(=O)n2nnn(-c3c(F)cccc3C(=O)N(C)c3ccccc3)c2=O)C(C)C)cc1C(=O)O,15 to 100 nM
13,COc1ccc(N(C(=O)n2nnn(-c3c(F)cccc3C(=O)N(C)C)c2=O)C(C)C)cc1C(=O)O,200 to 5000 nM
14,COc1ccc(N(C(=O)n2nnn(-c3c(F)cccc3C(=O)N(C)C)c2=O)C(C)C)cc1C(=O)OCc1ccccc1,< 15 nM
15,COc1ccc(COC(=O)c2cc(N(C(=O)n3nnn(-c4cccc5nsnc45)c3=O)C3CCCCC3)ccc2OC)cc1,< 15 nM
16,COc1ccc(N(C(=O)n2nnn(-c3cccc4nsnc34)c2=O)C2CCCCC2)cc1C(=O)O,15 to 100 nM
17,COc1ccc(N(C(=O)n2nnn(-c3cccc4nc[nH]c34)c2=O)C2CCCCC2)cc1C(=O)O,100 to 200 nM
18,CN(Cc1cccc2ccccc12)C(=O)n1nnn(-c2c(F)cccc2F)c1=O,100 to 200 nM

# Now from value to molecule:
row,IC50,SMILES
1,15 to 100 nM,COCCOc1ccc(N(C(=O)n2nnn(-c3c(F)cccc3OCCOC)c2=O)C2CCCCC2)cc1C(=O)O
2,< 15 nM,COCCOc1cccc(F)c1-n1nnn(C(=O)N(c2ccc(OC)c(C(=O)O)c2)C2CCCCC2)c1=O
3,< 15 nM,COc1ccc(N(C(=O)n2nnn(-c3c(F)cccc3OCC(OC)OC)c2=O)C2CCCCC2)cc1C(=O)O
4,< 15 nM,COc1ccc(N(C(=O)n2nnn(-c3c(F)cccc3OC(C)C)c2=O)C2CCCCC2)cc1C(=O)O
5,15 to 100 nM,COc1ccc(C(=O)O)cc1N(C(=O)n1nnn(-c2c(F)cccc2OC(C)C)c1=O)C1CCCCC1
6,15 to 100 nM,COc1ccc(C(=O)OCc2ccccc2)cc1N(C(=O)n1nnn(-c2c(F)cccc2OC(C)C)c1=O)C1CCCCC1
7,15 to 100 nM,COc1ccc(N(C(=O)n2nnn(-c3c(F)cccc3N3CCOCC3)c2=O)C2CCCCC2)cc1C(=O)O
8,15 to 100 nM,COc1ccc(N(C(=O)n2nnn(-c3cccc(N)c3N)c2=O)C2CCCCC2)cc1C(=O)O
9,< 15 nM,O=C(O)c1ccc(N(C(=O)n2nnn(-c3c(F)cccc3F)c2=O)C2CCCCC2)cn1
10,< 15 nM,CC(C)N(C(=O)n1nnn(-c2c(F)cccc2F)c1=O)c1cc(C(=O)O)ccc1Oc1ccccc1
11,< 15 nM,COc1cccc(F)c1-n1nnn(C(=O)N(c2cc(C(=O)O)ccc2Oc2ccccc2)C(C)C)c1=O
12,< 15 nM,O=C(O)c1ccc(N(C(=O)n2nnn(-c3c(F)cccc3F)c2=O)C2CCCCC2)c(Oc2ccccc2)c1
13,< 15 nM,O=C(O)c1ccc(N(C(=O)n2nnn(-c3c(F)cccc3F)c2=O)C2CCCC2)c(Oc2ccccc2)c1
14,< 15 nM,COc1cc(Oc2ccccc2)c(N(C(=O)n2nnn(-c3c(F)cccc3F)c2=O)C2CCCCC2)cc1C(=O)O
15,< 15 nM,COc1cc(Oc2ccccc2)c(N(C(=O)n2nnn(-c3c(F)cccc3F)c2=O)C2CCCC2)cc1C(=O)O
